Data from patent publication US6479435B1, “Diaryl ethers and processes for their preparation and herbicidal and desiccant compositions containing them” (ISK Americas Incorporated, priority 1997, dated 2002).

How the values were obtained:
Format in all cases: in vivo
[1] = tested on: field corn (Zea mays L., var. Dekalb 535, CORN); assay: Post-emerge greenhouse test, crop damage rating; conditions: 14 days after application, scale 0-100
Outline: (§1)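 Scores use a 0 (no damage) to 100 (complete kill) scale, taken 14 days after a foliar spray. Acetone solutions with 0.25% v/v non-ionic surfactant were applied by track sprayer at 187 l/ha and 63-1000 g ai/ha to bottom-watered 2-3 leaf plants.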

[2] = tested on: upland rice (Oryza sp., var.Tebonnet, RICE); assay: Post-emerge greenhouse test, crop damage rating; conditions: 14 days after application, scale 0-100
Outline: as §1

[3] = tested on: soybean (Glycine max L., var. Pella 86, SOY); assay: Post-emerge greenhouse test, crop damage rating; design: key to crop damage rating SOY: 0-100 scale: 0 = no damage, 100 = complete death of all plants; conditions: 14 days after application, scale 0-100
Outline: as §1

[4] = tested on: common ragweed (Ambrosia artemisiifolia L., AMBEL); assay: Post-emerge greenhouse herbicide test, phytotoxicity rating; conditions: 14 days after application, scale 0-100
Text: A standard greenhouse herbicide activity screening system was used to evaluate the herbicidal efficacy and crop safety of these test compounds. Six broadleaf weed species including redroot pigweed (Amaranthus retroflexus, AMARE), velvetleaf (Abutilon theophrasti, ABUTH), sicklepod (Cassia obtusifolia, CASOB), ivyleaf morningglory (Ipomoea hederacea, IPOHE), lambsquarters (Chenopodium album, CHEAL) and common ragweed (Ambrosia artemisiifolia L., AMBEL) were used as test species. Four grass weed species including green foxtail (Setaria viridis, SETVI), barnyardgrass (Echinochloa crusgalli, ECHCG), Johnsongrass (Sorghum halepense, SORHA), and large crabgrass (Digitaria sanguinalis, DIGSA) were also used. In addition, three crop species, field corn (Zea mays L., var. Dekalb 535, CORN), soybean (Glycine max L., var. Pella 86, SOY), and upland rice (Oryza sp., var.Tebonnet, RICE) were included.
All test compounds were dissolved in acetone and applied to the test units in a volume of 187 l/ha. […] Plants were arranged on a shelf so that the top of the canopy (post-emerge) or top of the soil surface (pre-emerge) was 40-45 cm below the nozzle. Pressurized air was used to force the test solution through the nozzle as it was mechanically advanced (via electrically driven chain drive) over the top of all test plants/pots. This application simulates a typical commercial field herbicide application.
In the post-emerge test, a commercial non-ionic surfactant was also included (0.25% v/v) to enhance wetting of the leaf surfaces Qf target plants at rates ranging from 63 g ai/ha to 1000 g ai/ha. For post-emerge tests, seeds were planted 8-21 days prior to the test to allow emergence and good foliage development prior to application of the test substances. At the time of the post-emerge application, plants of all species were usually at the 2-3 leaf stage of development. Post-emerge test units were always bottom-watered.
At 14 days after application of the test materials, phytotoxicity ratings were recorded. A rating scale of 0-100 was used as previously described in Research Methods in Weed Science, 2nd edition, B. Truelove, Ed., Southern Weed Science Society, Auburn University, Auburn, Ala., 1977. Briefly, “0” corresponds to no damage and “100” corresponds to complete death of all plants in the test unit. This scale was used both to determine efficacy against weed species and damage to crop species. Herbicide activity data for various compounds of this invention, which are shown by compound number in Tables 1-9, are shown in Tables 13 and 14.

[5] = tested on: field corn (Zea mays L., var. Dekalb 535, CORN); assay: Pre-emerge greenhouse test, crop damage rating; conditions: 14 days after application, rating scale 0-100
Outline: (§2)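 Visual 0–100 injury rating (100 = all plants dead) taken 14 days after treatment. Rates of 125–1000 g ai/ha in acetone, 187 l/ha, were sprayed onto soil one day post-sowing; pots were surface-watered to incorporate, then bottom-watered.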

[6] = tested on: upland rice (Oryza sp., var.Tebonnet, RICE); assay: Pre-emerge greenhouse test, crop damage rating; conditions: 14 days after application, rating scale 0-100
Outline: as §2

[7] = tested on: Johnsongrass (Sorghum halepense, SORHA); assay: Post-emerge greenhouse herbicide test, phytotoxicity rating; conditions: 14 days after application, scale 0-100
Outline: as §1

[8] = tested on: lambsquarters (Chenopodium album, CHEAL); assay: as above; conditions: 14 days after application, scale 0-100
Outline: as §1

[9] = tested on: sicklepod (Cassia obtusifolia, CASOB); assay: as above; conditions: 14 days after application, scale 0-100
Outline: as §1

[10] = tested on: velvetleaf (Abutilon theophrasti, ABUTH); assay: as above; conditions: 14 days after application, scale 0-100
Outline: as §1

[11] = tested on: ivyleaf morningglory (Ipomoea hederacea, IPOHE); assay: as above; conditions: 14 days after application, scale 0-100
Outline: as §1

[12] = tested on: barnyardgrass (Echinochloa crusgalli, ECHCG); assay: as above; conditions: 14 days after application, scale 0-100
Outline: as §1

[13] = tested on: large crabgrass (Digitaria sanguinalis, DIGSA); assay: as above; conditions: 14 days after application, scale 0-100
Outline: as §1

[14] = tested on: redroot pigweed (Amaranthus retroflexus, AMARE); assay: as above; conditions: 14 days after application, scale 0-100
Outline: as §1

[15] = tested on: green foxtail (Setaria viridis, SETVI); assay: as above; conditions: 14 days after application, scale 0-100
Outline: as §1

[16] = tested on: soybean (Glycine max L., var. Pella 86, SOY); assay: Pre-emerge greenhouse test, crop damage rating; design: key to SOY crop damage rating: 0 = no damage, 100 = complete death of all plants; conditions: 14 days after application, rating scale 0-100
Outline: as §2

[17] = tested on: Johnsongrass (Sorghum halepense, SORHA); assay: Pre-emerge greenhouse herbicide test, phytotoxicity rating; conditions: 14 days after application, rating scale 0-100
Outline: as §2

[18] = tested on: lambsquarters (Chenopodium album, CHEAL); assay: as above; conditions: 14 days after application, rating scale 0-100
Outline: as §2

[19] = tested on: sicklepod (Cassia obtusifolia, CASOB); assay: as above; conditions: 14 days after application, rating scale 0-100
Outline: as §2

[20] = tested on: velvetleaf (Abutilon theophrasti, ABUTH); assay: as above; conditions: 14 days after application, rating scale 0-100
Outline: as §2

[21] = tested on: ivyleaf morningglory (Ipomoea hederacea, IPOHE); assay: as above; conditions: 14 days after application, rating scale 0-100
Outline: as §2

[22] = tested on: barnyardgrass (Echinochloa crusgalli, ECHCG); assay: as above; conditions: 14 days after application, rating scale 0-100
Outline: as §2

[23] = tested on: large crabgrass (Digitaria sanguinalis, DIGSA); assay: as above; conditions: 14 days after application, rating scale 0-100
Outline: as §2

[24] = tested on: redroot pigweed (Amaranthus retroflexus, AMARE); assay: as above; conditions: 14 days after application, rating scale 0-100
Outline: as §2

[25] = tested on: green foxtail (Setaria viridis, SETVI); assay: as above; conditions: 14 days after application, rating scale 0-100
Outline: as §2

Compound: CCOC(=O)C(C)Oc1ccc(Oc2cc(-n3c(=O)n4n(c3=O)CCCC4)c(F)cc2Cl)c([N+](=O)[O-])c1 (stereo not shown) [Compound 8-41]
- crop damage rating CORN ([1]; rate 63 g ai/ha): 0
- crop damage rating CORN ([1]; rate 250 g ai/ha): 0
- crop damage rating RICE ([2]; rate 63 g ai/ha): 0
- crop damage rating RICE ([2]; rate 250 g ai/ha): 0
- crop damage rating SOY ([3]; rate 63 g ai/ha): 30
- crop damage rating SOY ([3]; rate 250 g ai/ha): 60
- phytotoxicity rating AMBEL ([4]; rate 63 g ai/ha): 00
- phytotoxicity rating AMBEL ([4]; rate 250 g ai/ha): 30
- CORN crop damage rating ([5]; Rate 125 g al/ha): 0
- CORN crop damage rating ([5]; Rate 250 g al/ha): 0
- RICE crop damage rating ([6]; Rate 125 g al/ha): 0
- RICE crop damage rating ([6]; Rate 250 g al/ha): 0
- phytotoxicity rating SORHA ([7]; rate 63 g ai/ha): 0
- phytotoxicity rating SORHA ([7]; rate 250 g ai/ha): 0
- phytotoxicity rating CHEAL ([8]; rate 63 g ai/ha): 40
- phytotoxicity rating CHEAL ([8]; rate 250 g ai/ha): 50
- phytotoxicity rating CASOB ([9]; rate 63 g ai/ha): 30
- phytotoxicity rating CASOB ([9]; rate 250 g ai/ha): 100
- phytotoxicity rating ABUTH ([10]; rate 63 g ai/ha): 95
- phytotoxicity rating ABUTH ([10]; rate 250 g ai/ha): 100
- phytotoxicity rating IPOHE ([11]; rate 63 g ai/ha): 30
- phytotoxicity rating IPOHE ([11]; rate 250 g ai/ha): 100
- phytotoxicity rating ECHCG ([12]; rate 63 g ai/ha): 0
- phytotoxicity rating ECHCG ([12]; rate 250 g ai/ha): 0
- phytotoxicity rating DIGSA ([13]; rate 63 g ai/ha): 0
- phytotoxicity rating DIGSA ([13]; rate 250 g ai/ha): 0
- phytotoxicity rating AMARE ([14]; rate 63 g ai/ha): 40
- phytotoxicity rating AMARE ([14]; rate 250 g ai/ha): 40
- phytotoxicity rating SETVI ([15]; rate 63 g ai/ha): 0
- phytotoxicity rating SETVI ([15]; rate 250 g ai/ha): 0
- SOY crop damage rating ([16]; Rate 125 g al/ha): 0
- SOY crop damage rating ([16]; Rate 250 g al/ha): 0
- SORHA phytotoxicity rating ([17]; Rate 125 g al/ha): 0
- SORHA phytotoxicity rating ([17]; Rate 250 g al/ha): 0
- CHEAL phytotoxicity rating ([18]; Rate 125 g al/ha): 70
- CHEAL phytotoxicity rating ([18]; Rate 250 g al/ha): 90
- CASOB phytotoxicity rating ([19]; Rate 125 g al/ha): 0
- CASOB phytotoxicity rating ([19]; Rate 250 g al/ha): 0
- ABUTH phytotoxicity rating ([20]; Rate 125 g al/ha): 0
- ABUTH phytotoxicity rating ([20]; Rate 250 g al/ha): 70
- IPOHE phytotoxicity rating ([21]; Rate 125 g al/ha): 0
- IPOHE phytotoxicity rating ([21]; Rate 250 g al/ha): 0
- ECHCG phytotoxicity rating ([22]; Rate 125 g al/ha): 0
- ECHCG phytotoxicity rating ([22]; Rate 250 g al/ha): 0
- DIGSA phytotoxicity rating ([23]; Rate 125 g al/ha): 0
- DIGSA phytotoxicity rating ([23]; Rate 250 g al/ha): 0
- AMARE phytotoxicity rating ([24]; Rate 125 g al/ha): 80
- AMARE phytotoxicity rating ([24]; Rate 250 g al/ha): 100
- SETVI phytotoxicity rating ([25]; Rate 125 g al/ha): 10
- SETVI phytotoxicity rating ([25]; Rate 250 g al/ha): 50

Compound: CSc1cccnc1Oc1cc(-n2c(=O)n3n(c2=S)CCCC3)c(F)cc1Cl [Compound 8-43]
- crop damage rating CORN ([1]; rate 63 g ai/ha): 20
- crop damage rating CORN ([1]; rate 250 g ai/ha): 30
- crop damage rating RICE ([2]; rate 63 g ai/ha): 10
- crop damage rating RICE ([2]; rate 250 g ai/ha): 30
- crop damage rating SOY ([3]; rate 63 g ai/ha): 80
- crop damage rating SOY ([3]; rate 250 g ai/ha): 100
- phytotoxicity rating AMBEL ([4]; rate 63 g ai/ha): 100
- phytotoxicity rating AMBEL ([4]; rate 250 g ai/ha): 100
- CORN crop damage rating ([5]; Rate 125 g al/ha): 0
- CORN crop damage rating ([5]; Rate 250 g al/ha): 0
- RICE crop damage rating ([6]; Rate 125 g al/ha): 20
- RICE crop damage rating ([6]; Rate 250 g al/ha): 20
- phytotoxicity rating SORHA ([7]; rate 63 g ai/ha): 20
- phytotoxicity rating SORHA ([7]; rate 250 g ai/ha): 30
- phytotoxicity rating CHEAL ([8]; rate 63 g ai/ha): 90
- phytotoxicity rating CHEAL ([8]; rate 250 g ai/ha): 100
- phytotoxicity rating CASOB ([9]; rate 63 g ai/ha): 95
- phytotoxicity rating CASOB ([9]; rate 250 g ai/ha): 100
- phytotoxicity rating ABUTH ([10]; rate 63 g ai/ha): 100
- phytotoxicity rating ABUTH ([10]; rate 250 g ai/ha): 100
- phytotoxicity rating IPOHE ([11]; rate 63 g ai/ha): 100
- phytotoxicity rating IPOHE ([11]; rate 250 g ai/ha): 100
- phytotoxicity rating ECHCG ([12]; rate 63 g ai/ha): 20
- phytotoxicity rating ECHCG ([12]; rate 250 g ai/ha): 30
- phytotoxicity rating DIGSA ([13]; rate 63 g ai/ha): 0
- phytotoxicity rating DIGSA ([13]; rate 250 g ai/ha): 20
- phytotoxicity rating AMARE ([14]; rate 63 g ai/ha): 60
- phytotoxicity rating AMARE ([14]; rate 250 g ai/ha): 90
- phytotoxicity rating SETVI ([15]; rate 63 g ai/ha): 40
- phytotoxicity rating SETVI ([15]; rate 250 g ai/ha): 60
- SOY crop damage rating ([16]; Rate 125 g al/ha): 0
- SOY crop damage rating ([16]; Rate 250 g al/ha): 0
- SORHA phytotoxicity rating ([17]; Rate 125 g al/ha): 0
- SORHA phytotoxicity rating ([17]; Rate 250 g al/ha): 0
- CHEAL phytotoxicity rating ([18]; Rate 125 g al/ha): 100
- CHEAL phytotoxicity rating ([18]; Rate 250 g al/ha): 100
- CASOB phytotoxicity rating ([19]; Rate 125 g al/ha): 20
- CASOB phytotoxicity rating ([19]; Rate 250 g al/ha): 30
- ABUTH phytotoxicity rating ([20]; Rate 125 g al/ha): 10
- ABUTH phytotoxicity rating ([20]; Rate 250 g al/ha): 30
- IPOHE phytotoxicity rating ([21]; Rate 125 g al/ha): 0
- IPOHE phytotoxicity rating ([21]; Rate 250 g al/ha): 20
- ECHCG phytotoxicity rating ([22]; Rate 125 g al/ha): 0
- ECHCG phytotoxicity rating ([22]; Rate 250 g al/ha): 0
- DIGSA phytotoxicity rating ([23]; Rate 125 g al/ha): 90
- DIGSA phytotoxicity rating ([23]; Rate 250 g al/ha): 100
- AMARE phytotoxicity rating ([24]; Rate 125 g al/ha): 20
- AMARE phytotoxicity rating ([24]; Rate 250 g al/ha): 70
- SETVI phytotoxicity rating ([25]; Rate 125 g al/ha): 100
- SETVI phytotoxicity rating ([25]; Rate 250 g al/ha): 100
